Assay results from patent US4178442A, “Novel cinnamoyles piperazines and homopiperazines, the method of preparing them and their application in therapeutics” (Delalande S. A., priority 1977, dated 1979).
Like-named read-outs stand apart in the source and are kept apart here.

Test system: anaesthetized dog
Assay: Antiangorous activity on anaesthetized dog: consumption of oxygen in the left ventricule and cardiac effort (KATZ's index)
Format: in vivo
Conditions: for inhibition in vivo at 2.5 mg/kg / inhibition in vivo at 10 mg/kg / inhibition in vivo at […] / inhibition in vivo at 1.25 mg/kg / inhibition in vivo at 0.625 mg/kg: Canis lupus familiaris, iv; for inhibition in vivo at […]: 0.15 mg/kg i.v. slow perfusion
Method: The antiangorous activity was tested on an anaesthetized dog (sodium pentobarbital 30 mg/kg/i.v.).
The consumption of oxygen in the left ventricule was estimated by the product of the coronary venous flow and the coronary arteriovenous difference in oxygen (% volume).
The coronary venous flow was measured at the coronary venous sinus by means of a modified Morawitz cannula, introduced under radioscopic control.
The cardiac effort was estimated according to KATZ's index, by the product of the average arterial pressure and the cardiac frequency.
The cardiac frequency was estimated from the electrocardiogram recorded with D2 derivation.
It should be noted that the compounds tested were injected intravenously with slow perfusion.

[1] = 2.5 mg/kg i.v. slow perfusion, read-out: Diminution in consumption of O2
[2] = 2.5 mg/kg i.v. slow perfusion, read-out: Diminution in the cardiac effort (IK)
[3] = read-out: Diminution in consumption of O2
[4] = read-out: Diminution in the cardiac effort (IK)
[5] = 1.25 mg/kg i.v. slow perfusion, read-out: Diminution in consumption of O2
[6] = 1.25 mg/kg i.v. slow perfusion, read-out: Diminution in the cardiac effort (IK)
[7] = 0.625 mg/kg i.v. slow perfusion
[8] = 0.625 mg/kg i.v. slow perfusion, read-out: Diminution in consumption of O2
[9] = 0.625 mg/kg i.v. slow perfusion, read-out: Diminution in the cardiac effort (IK)

Structure (SMILES) | Diminution in consumption of O2: in time (2.5 mg/kg i.v. slow perfusion) [min] | Diminution in the cardiac effort (IK): in time (2.5 mg/kg i.v. slow perfusion) [min] | inhibition in vivo at 2.5 mg/kg [1] [%] | inhibition in vivo at 2.5 mg/kg [2] [%] | other results
COc1cc(/C=C/C(=O)N2CCN(CC(O)COc3ccc(C(C)=O)cc3F)CC2)cc(OC)c1OC (stereo not drawn) [780 353] | 15 | 15 | 46 | 16 | –
CNC(=O)Nc1ccc(OCC(O)CN2CCN(C(=O)/C=C/c3cc(OC)c(OC)c(OC)c3)CC2)c2c1CCC2 (stereo not drawn) [771 153] | 23 | 40 | 31 | 63 | –
COc1cc(/C=C/C(=O)N2CCN(CC(O)CSc3cccc4c3OCCO4)CC2)cc(OC)c1OC (stereo not drawn) [780 389] | 15 | 30 | 32 | 15 | –
CNC(=O)Nc1cc(Cl)c(OCC(O)CN2CCN(C(=O)/C=C/c3cc(OC)c(OC)c(OC)c3)CC2)c(Cl)c1 (stereo not drawn) [780 292] | 90 | 45 | 59 | 34 | –
CCCCc1oc2ccccc2c1C(=O)c1cc(I)c(OCCN(CC)CC)c(I)c1 [AMIODARONE, reference compound] | – | – | – | – | Diminution in consumption of O2: in time (10 mg/kg i.v. slow perfusion): 15 min; Diminution in the cardiac effort (IK): in time (10 mg/kg i.v. slow perfusion): 15 min; inhibition in vivo at 10 mg/kg (10 mg/kg i.v. slow perfusion, read-out: Diminution in consumption of O2): 11%; inhibition in vivo at 10 mg/kg (10 mg/kg i.v. slow perfusion, read-out: Diminution in the cardiac effort (IK)): 22%
COc1cc(/C=C/C(=O)N2CCN(CC(O)COc3ccc(C(C)=O)c4c3CCC4)CC2)cc(OC)c1OC (stereo not drawn) [760 852] | 30 | 45 | 44 | 23 | –
COc1cc(C(C)=O)ccc1OCC(O)CN1CCCN(C(=O)/C=C/c2cc(OC)c(OC)c(OC)c2)CC1 (stereo not drawn) [780 269] | 30 | 60 | 34 | 40 | –
CNC(=O)Nc1ccc(OCC(O)CN2CCN(C(=O)/C=C/c3cc(OC)c(OC)c(OC)c3)CC2)c2ccccc12 (stereo not drawn) [771 031] | – | – | – | – | inhibition in vivo at […] [3]: 20%; inhibition in vivo at […] [4]: 25%
COc1cc(/C=C/C(=O)N2CCN(CC(O)COc3c(Cl)cc(C(C)=O)cc3Cl)CC2)cc(OC)c1OC (stereo not drawn) [780 339] | 45 | 40 | 74 | 42 | –
COc1cc(/C=C/C(=O)N2CCN(CC(O)COc3ccc(Cl)cc3C)CC2)cc(OC)c1OC (stereo not drawn) [770 966] | – | 30 | 7 | 46 | –
COc1cc(/C=C/C(=O)N2CCN(CC(O)COc3ccc(OC)c4c3OCCO4)CC2)cc(OC)c1OC (stereo not drawn) [780 009] | – | – | – | – | Diminution in consumption of O2: in time (1.25 mg/kg i.v. slow perfusion): 35 min; Diminution in the cardiac effort (IK): in time (1.25 mg/kg i.v. slow perfusion): 30 min; inhibition in vivo at 1.25 mg/kg [5]: 48%; inhibition in vivo at 1.25 mg/kg [6]: 20%
COc1cc(/C=C/C(=O)N2CCN(CC(O)COc3ccc(C(C)=O)c4ccccc34)CC2)cc(OC)c1OC (stereo not drawn) [771 315] | – | – | – | – | Diminution in the cardiac effort (IK): in time (1.25 mg/kg i.v. slow perfusion): 15 min; inhibition in vivo at 1.25 mg/kg [5]: 11%; inhibition in vivo at 1.25 mg/kg [6]: 29%
CNC(=O)c1ccc(OCCCN2CCN(C(=O)/C=C/c3cc(OC)c(OC)c(OC)c3)CC2)c2c1OCCO2 [771 163] | – | – | – | – | Diminution in consumption of O2: in time [7]: 30 min; Diminution in the cardiac effort (IK): in time [7]: 40 min; inhibition in vivo at 0.625 mg/kg [8]: 61%; inhibition in vivo at 0.625 mg/kg [9]: 20%
COc1cc(/C=C/C(=O)N2CCN(CC(O)CSc3ccc(C(C)=O)c4c3OCCO4)CC2)cc(OC)c1OC (stereo not drawn) [780 384] | – | – | – | – | inhibition in vivo at […] [3]: 43%; inhibition in vivo at […] [4]: 25%
COc1cc(/C=C/C(=O)N2CCN(CC(O)COc3ccc(NC(C)=O)c4c3CCC4)CC2)cc(OC)c1OC (stereo not drawn) [771 306] | – | – | – | – | Diminution in consumption of O2: in time (1.25 mg/kg i.v. slow perfusion): 15 min; Diminution in the cardiac effort (IK): in time (1.25 mg/kg i.v. slow perfusion): 30 min; inhibition in vivo at 1.25 mg/kg [5]: 58%; inhibition in vivo at 1.25 mg/kg [6]: 38%
COc1cc(C=O)ccc1OCC(O)CN1CCN(C(=O)/C=C/c2cc(OC)c(OC)c(OC)c2)CC1 (stereo not drawn) [780 329] | 30 | 30 | 21 | 13 | –
CCCc1ccc(OCC(O)CN2CCN(C(=O)/C=C/c3cc(OC)c(OC)c(OC)c3)CC2)cc1 (stereo not drawn) [780 267] | 30 | – | 27 | 8 | –
COc1cc(/C=C/C(=O)N2CCN(CC(O)COc3ccc(NC(C)=O)c4ccccc34)CC2)cc(OC)c1OC (stereo not drawn) [771 036] | – | 15 | 15 | 25 | –

Structure (SMILES) | Diminution in consumption of O2: in time (2.5 mg/kg i.v. slow perfusion) [min] | Diminution in the cardiac effort (IK): in time (2.5 mg/kg i.v. slow perfusion) [min] | inhibition in vivo at 2.5 mg/kg [1] [%] | inhibition in vivo at 2.5 mg/kg [2] [%] | other results
COc1cc(/C=C/C(=O)N2CCN(CC(O)COc3c(OC)cc(C(C)=O)cc3OC)CC2)cc(OC)c1OC (stereo not drawn) [780 359] | – | – | – | – | Diminution in consumption of O2: in time [7]: 45 min; Diminution in the cardiac effort (IK): in time [7]: 30 min; inhibition in vivo at 0.625 mg/kg [8]: 60%; inhibition in vivo at 0.625 mg/kg [9]: 32%
CNC(=O)Nc1ccc(OCC(O)CN2CCN(C(=O)/C=C/c3cc(OC)c(OC)c(OC)c3)CC2)c2c1OCCCO2 (stereo not drawn) [780 456] | – | – | – | – | Diminution in consumption of O2: in time [7]: 15 min; Diminution in the cardiac effort (IK): in time [7]: 30 min; inhibition in vivo at 0.625 mg/kg [8]: 13%; inhibition in vivo at 0.625 mg/kg [9]: 32%
COc1cc(/C=C/C(=O)N2CCN(CC(O)COc3ccc(C(C)=O)cc3OC)CC2)cc(OC)c1 (stereo not drawn) [780 404] | 15 | 30 | 69 | 44 | –
CNC(=O)Nc1cc(OC)c(OCC(O)CN2CCN(C(=O)/C=C/c3cc(OC)c(OC)c(OC)c3)CC2)c(OC)c1 (stereo not drawn) [780 357] | 15 | 15 | 43 | 21 | –
COc1cc(/C=C/C(=O)N2CCN(CC(O)COc3ccc(C(=O)OC4CCCCC4)c4c3OCCO4)CC2)cc(OC)c1OC (stereo not drawn) [780 333] | – | – | – | – | inhibition in vivo at […] [3]: 51%; inhibition in vivo at […] [4]: 21%
COc1cc(/C=C/C(=O)N2CCN(CC(O)COc3ccc(C(=O)OC(C)(C)C)c4c3OCCO4)CC2)cc(OC)c1OC (stereo not drawn) [780 369] | – | – | – | – | Diminution in consumption of O2: in time [7]: 15 min; Diminution in the cardiac effort (IK): in time [7]: 15 min; inhibition in vivo at 0.625 mg/kg [8]: 37%; inhibition in vivo at 0.625 mg/kg [9]: 4%
COc1cc(/C=C/C(=O)N2CCN(CC(O)COc3ccc(C(=O)OC(C)C)c4c3OCCO4)CC2)cc(OC)c1OC (stereo not drawn) [780 373] | 30 | 30 | 66 | 25 | –
CNC(=O)Nc1ccc(OCC(O)CN2CCCN(C(=O)/C=C/c3cc(OC)c(OC)c(OC)c3)CC2)c2c1OCCO2 (stereo not drawn) [780 374] | 30 | 15 | 39 | 31 | –
CNC(=O)Nc1ccc(OCC(O)CN2CCN(C(=O)/C=C/c3cc(OC)c(OC)c(OC)c3)CC2)c(Cl)c1 (stereo not drawn) [780 189] | 30 | 45 | 63 | 30 | –
COc1cc(/C=C/C(=O)N2CCN(CC(O)COc3ccc(C(C)=O)c4c3CCCC4)CC2)cc(OC)c1OC (stereo not drawn) [780 128] | 23 | 23 | 57 | 17 | –
COc1cc(/C=C/C(=O)N2CCN(CC(O)COc3ccc(NC(C)=O)c4c3OCO4)CC2)cc(OC)c1OC (stereo not drawn) [780 346] | – | – | – | – | inhibition in vivo at […] [3]: 43%; inhibition in vivo at […] [4]: 2%
COc1cc(C#N)ccc1OCC(O)CN1CCN(C(=O)/C=C/c2cc(OC)c(OC)c(OC)c2)CC1 (stereo not drawn) [771 281] | 30 | 30 | 23 | 44 | –
COc1cc(/C=C/C(=O)N2CCN(CC(O)COc3ccc(C(=O)c4ccccc4)cc3)CC2)cc(OC)c1OC (stereo not drawn) [771 318] | 60 | 15 | 63 | 31 | –
COc1cc(/C=C/C(=O)N2CCN(CC(O)COc3ccc(C(C)=O)cc3Cl)CC2)cc(OC)c1OC (stereo not drawn) [780 401] | 30 | – | 64 | 6 | –
CCCCCOC(=O)c1ccc(OCC(O)CN2CCN(C(=O)/C=C/c3cc(OC)c(OC)c(OC)c3)CC2)c2c1OCCO2 (stereo not drawn) [780 301] | – | – | – | – | inhibition in vivo at […] [3]: 40%; inhibition in vivo at […] [4]: 28%
COc1cc(/C=C/C(=O)N2CCN(CC(O)COc3ccc(NC(=O)N4CCOCC4)c4c3OCCO4)CC2)cc(OC)c1OC (stereo not drawn) [771 149] | – | – | – | – | inhibition in vivo at […] [3]: 12%; inhibition in vivo at […] [4]: 14%
CCOC(=O)c1cc(OC)c(OCC(O)CN2CCN(C(=O)/C=C/c3cc(OC)c(OC)c(OC)c3)CC2)c(OC)c1 (stereo not drawn) [780 361] | 30 | 45 | 68 | 38 | –
